Laboratory results as given in ChEMBL document CHEMBL1201862, “PubChem BioAssay data set” (2004).
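In this assay, cells in 96-well plates receive the compound at five concentrations for 48 hours. Endpoints are linearly interpolated between the surrounding concentrations. GI50: concentration for 50% inhibition of growth.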 Active and inactive are the calls of the source. Rule as the data show it: active = GI50 up to about 1.1 µM and inactive = higher.

Columns and labels:
Experiment in all cases: inhibition of tumour cell growth, NCI panel, 48 h
SW-620 = system: SW-620
A498 = system: A498
SK-MEL-2 = system: SK-MEL-2
786-0 = system: 786-0
OVCAR-3 = system: OVCAR-3
SK-MEL-28 = system: SK-MEL-28
TK-10 = system: TK-10
HCC 2998 = system: HCC 2998
SF-295 = system: SF-295
EKVX = system: EKVX
SN12C = system: SN12C
SNB-19 = system: SNB-19
SF-268 = system: SF-268
CAKI-1 = system: CAKI-1
K562 = system: K562
NCI-H226 = system: NCI-H226
HL-60 = system: HL-60
MDA-MB-435 = system: MDA-MB-435
MDA-MB-231 = system: MDA-MB-231
MDA-N = system: MDA-N

SMILES | GI50 (SW-620) | GI50 (A498) | GI50 (SK-MEL-2) | GI50 (786-0) | GI50 (OVCAR-3) | GI50 (SK-MEL-28) | GI50 (TK-10) | GI50 (HCC 2998) | GI50 (SF-295) | GI50 (EKVX) | GI50 (SN12C) | GI50 (SNB-19) | GI50 (SF-268) | GI50 (CAKI-1) | GI50 (K562) | GI50 (NCI-H226) | GI50 (HL-60) | GI50 (MDA-MB-435) | GI50 (MDA-MB-231) | GI50 (MDA-N)
C/C(CCn1[nH]c(=O)ccc1=O)=N\O | > 100 µM (inactive) | > 100 µM (inactive) | > 100 µM (inactive) | > 100 µM (inactive) | > 100 µM (inactive) | > 100 µM (inactive) | > 100 µM (inactive) | > 100 µM (inactive) | > 100 µM (inactive) | > 100 µM (inactive) | > 100 µM (inactive) | > 100 µM (inactive) | > 100 µM (inactive) | > 100 µM (inactive) | > 100 µM (inactive) | > 100 µM (inactive) | > 100 µM (inactive) |  |  | 
CN1CN(C2OC(CO)C(O)C2O)c2nc(N)[nH]c(=O)c21 (configuration not stated) | > 100 µM (inactive) | > 100 µM (inactive) | > 100 µM (inactive) | > 100 µM (inactive) | > 100 µM (inactive) |  | > 100 µM (inactive) | > 100 µM (inactive) | > 100 µM (inactive) | > 100 µM (inactive) | > 100 µM (inactive) | > 100 µM (inactive) | > 100 µM (inactive) | > 100 µM (inactive) | > 100 µM (inactive) | > 100 µM (inactive) | > 100 µM (inactive) |  |  | 
CCSc1nnc(CSc2nc(-c3ccccc3)c(-c3ccccc3)[nH]2)n1-c1ccccc1 | 16.6 µM (inactive) | 18.5 µM (inactive) | 21.7 µM (inactive) | 19.8 µM (inactive) | 15.9 µM (inactive) | 21 µM (inactive) | 22.6 µM (inactive) | 20.8 µM (inactive) | 23.1 µM (inactive) | 24.4 µM (inactive) | 15.8 µM (inactive) | 16.1 µM (inactive) | 23.3 µM (inactive) | 23.7 µM (inactive) | 25.3 µM (inactive) | 14.1 µM (inactive) | 25.8 µM (inactive) |  |  | 
CCC(=O)NCC1(c2c[nH]c3ccccc23)SCCS1 | > 100 µM (inactive) | > 100 µM (inactive) | > 100 µM (inactive) | > 100 µM (inactive) | > 100 µM (inactive) | > 100 µM (inactive) | > 100 µM (inactive) | > 100 µM (inactive) | > 100 µM (inactive) | > 100 µM (inactive) | > 100 µM (inactive) | > 100 µM (inactive) | > 100 µM (inactive) | > 100 µM (inactive) | > 100 µM (inactive) | > 100 µM (inactive) | > 100 µM (inactive) |  |  | 
O=C(CC1=Nc2nnc(CCCCCCCc3nnc4n3C(=O)C(CC(=O)c3ccc5ccccc5c3)=N4)n2C1=O)c1ccc2ccccc2c1 | > 100 µM (inactive) | < 0.01 µM (active) | > 100 µM (inactive) | > 100 µM (inactive) | > 100 µM (inactive) | > 100 µM (inactive) | > 100 µM (inactive) | > 100 µM (inactive) | > 100 µM (inactive) | 63.5 µM (inactive) | > 100 µM (inactive) | > 100 µM (inactive) | > 100 µM (inactive) | > 100 µM (inactive) | > 100 µM (inactive) | > 100 µM (inactive) | > 100 µM (inactive) |  |  | 
Cc1nc2ccc(F)cc2c2c1CCN2c1ccccc1 | 23.4 µM (inactive) | 27.6 µM (inactive) |  | 23 µM (inactive) | 30.5 µM (inactive) | 16.2 µM (inactive) | 22.9 µM (inactive) | 18.1 µM (inactive) | 11.7 µM (inactive) | 22.4 µM (inactive) |  | 32.8 µM (inactive) | 23.3 µM (inactive) |  | 11.8 µM (inactive) | 16.6 µM (inactive) | 7.43 µM (inactive) | 14.1 µM (inactive) |  | 
CC(=O)C(C(C)=O)=C1CCCC(O)O1 (configuration not stated) | > 100 µM (inactive) | > 100 µM (inactive) |  | > 100 µM (inactive) |  | > 100 µM (inactive) | > 100 µM (inactive) | > 100 µM (inactive) | > 100 µM (inactive) | > 100 µM (inactive) | > 100 µM (inactive) | > 100 µM (inactive) | > 100 µM (inactive) |  | > 100 µM (inactive) | > 100 µM (inactive) | > 100 µM (inactive) | > 100 µM (inactive) | > 100 µM (inactive) | 
O=C(Cc1csc(-c2nc(CC(=O)NNc3ccccc3)cs2)n1)NNc1ccccc1 |  | > 100 µM (inactive) | > 100 µM (inactive) | 35.6 µM (inactive) | > 100 µM (inactive) | > 100 µM (inactive) | > 100 µM (inactive) | 43 µM (inactive) | > 100 µM (inactive) | > 100 µM (inactive) | > 100 µM (inactive) | > 100 µM (inactive) | > 100 µM (inactive) | > 100 µM (inactive) | 32.8 µM (inactive) | > 100 µM (inactive) | 32 µM (inactive) |  |  | 
N#CC1CCCCOCCOCCOCCOCCOCCCCCC1=O (configuration not stated) | > 100 µM (inactive) | > 100 µM (inactive) | > 100 µM (inactive) | > 100 µM (inactive) | > 100 µM (inactive) | > 100 µM (inactive) | > 100 µM (inactive) | > 100 µM (inactive) | > 100 µM (inactive) | > 100 µM (inactive) | > 100 µM (inactive) | > 100 µM (inactive) | > 100 µM (inactive) | > 100 µM (inactive) | > 100 µM (inactive) | > 100 µM (inactive) | > 100 µM (inactive) |  |  | 
CN1CCC2(CC1)/C(=N/C1CCCCC1)NC(=S)N2c1ccccc1 | > 100 µM (inactive) | > 100 µM (inactive) |  | > 100 µM (inactive) |  | > 100 µM (inactive) | > 100 µM (inactive) | > 100 µM (inactive) | > 100 µM (inactive) | > 100 µM (inactive) | > 100 µM (inactive) | > 100 µM (inactive) | > 100 µM (inactive) |  | > 100 µM (inactive) | > 100 µM (inactive) | > 100 µM (inactive) | > 100 µM (inactive) | > 100 µM (inactive) | 
C[C@H]1CC(=O)C[C@@H]2CC[C@@H]3[C@H](CC[C@]4(C)C(OC(=O)c5cccc6c(=O)c7ccccc7[nH]c56)CC[C@@H]34)[C@]21C (some centres not stated) | 55.5 µM (inactive) | 30.1 µM (inactive) | 28.6 µM (inactive) | 48 µM (inactive) | 47.2 µM (inactive) | 38.2 µM (inactive) | 64.7 µM (inactive) | 47 µM (inactive) | 38.5 µM (inactive) | 31.1 µM (inactive) | 46 µM (inactive) | > 100 µM (inactive) | 57.5 µM (inactive) | 10 µM (inactive) | 23.6 µM (inactive) | 28.2 µM (inactive) | 14.3 µM (inactive) | 36.4 µM (inactive) | 23.6 µM (inactive) | 
CC(C)CC(=O)NC(Nc1ccc(S(=O)(=O)Nc2ncccn2)cc1)(C(F)(F)F)C(F)(F)F | > 100 µM (inactive) |  | > 100 µM (inactive) | > 100 µM (inactive) | > 100 µM (inactive) | > 100 µM (inactive) |  | > 100 µM (inactive) | > 100 µM (inactive) | > 100 µM (inactive) | > 100 µM (inactive) | > 100 µM (inactive) | > 100 µM (inactive) | > 100 µM (inactive) | > 100 µM (inactive) | > 100 µM (inactive) | > 100 µM (inactive) | > 100 µM (inactive) | > 100 µM (inactive) | > 100 µM (inactive)
CCOC1=NC(=O)CC(c2ccccc2)S1 (configuration not stated) | > 100 µM (inactive) | > 100 µM (inactive) | > 100 µM (inactive) | > 100 µM (inactive) | > 100 µM (inactive) |  |  | > 100 µM (inactive) | > 100 µM (inactive) | > 100 µM (inactive) | > 100 µM (inactive) | > 100 µM (inactive) | > 100 µM (inactive) | > 100 µM (inactive) | > 100 µM (inactive) | 27.8 µM (inactive) | > 100 µM (inactive) |  |  | 
O=C(NO)C12C3C4C1C1C2C3C41C(=O)NO (configuration not stated) |  | > 100 µM (inactive) | > 100 µM (inactive) | > 100 µM (inactive) | > 100 µM (inactive) | > 100 µM (inactive) | > 100 µM (inactive) | > 100 µM (inactive) | > 100 µM (inactive) | > 100 µM (inactive) | > 100 µM (inactive) | > 100 µM (inactive) | > 100 µM (inactive) | > 100 µM (inactive) | > 100 µM (inactive) | > 100 µM (inactive) | > 100 µM (inactive) |  |  | 
CCOC(=O)Nc1ccc(S(=O)(=O)OC)cc1.CCOC(=O)Nc1ccc(S(=O)(=O)OC)cc1.Nc1ncnc2c1ncn2C1OC(CO)C(O)C1O (configuration not stated) | 18.2 µM (inactive) | > 100 µM (inactive) | > 100 µM (inactive) | 21.5 µM (inactive) | > 100 µM (inactive) | > 100 µM (inactive) | > 100 µM (inactive) | > 100 µM (inactive) | > 100 µM (inactive) | > 100 µM (inactive) | > 100 µM (inactive) | > 100 µM (inactive) | > 100 µM (inactive) | > 100 µM (inactive) | 23 µM (inactive) | > 100 µM (inactive) | 21.8 µM (inactive) |  |  | 
O=S(=O)(N/C(=N\O)Nc1ccc(Cl)cc1)c1cc2ccccc2o1 | 23.1 µM (inactive) |  | 16.6 µM (inactive) | 20.7 µM (inactive) | 13.1 µM (inactive) | 17.9 µM (inactive) | 28.8 µM (inactive) |  | 14.9 µM (inactive) | 18.6 µM (inactive) | 18.1 µM (inactive) | 34.5 µM (inactive) | 18.3 µM (inactive) | 10.6 µM (inactive) | 11.1 µM (inactive) | 33.4 µM (inactive) | 15.3 µM (inactive) | 12.2 µM (inactive) | 18 µM (inactive) | 38.8 µM (inactive)
